Data taken from patent publication US12492173B2, “Herbicidal substituted N-tetrazolyl aryl carboxamides” (Bayer Aktiengesellschaft, priority 2019, dated 2025).

Legend:
Format in all cases: in vivo
Lolium rigidum = assay: Post-emergence herbicidal action, LOLRI; settings: dosage 80 g/ha
Description: (§1) [table] 2. Post-Emergence Herbicidal Action Against Harmful Plants Seeds of monocotyledonous and dicotyledonous weed and crop plants are laid out in sandy loam soil in wood-fiber pots, covered with soil and cultivated in a greenhouse under good growth conditions. 2 to 3 weeks after sowing, the test plants are treated at the one-leaf stage. The compounds of the invention, formulated in the form of wettable powders (WP) or as emulsion concentrates (EC), are then sprayed onto the green parts of the plants in the form of an aqueous suspension or emulsion at a water application rate equating to 600 to 800 l/ha, with addition of 0.2% wetting agent. After the test plants have been left to stand in the greenhouse under optimal growth conditions for about 3 weeks, the action of the preparations is assessed visually in comparison to untreated controls (herbicidal action in percent (%): 100% activity=the plants have died, 0% activity=like control plants). […] The tables below illustrate, in an exemplary manner, the post-emergence herbicidal action of the compounds according to the invention, the herbicidal activity being stated in percent. In the experiments that follow, herbicidal action of numerous inventive compounds and the known compounds that are structurally closest from D1 (WO 2012/028579 A1) and D2 (WO 2018/202535 A1) were compared under the above-specified conditions by the pre-emergence and post-emergence method. The example numbers given in the tables relate to the compounds disclosed in the respective documents. In addition to the compounds disclosed in D1 and D2, the following compounds V-1 to V-14 that are encompassed by D1 or D2 but are not compounds specified therein were used in the comparative experiments: • V-1: 2-(methylsulfanyl)-3-(methylsulfinyl)-N-(1-methyl-1H-tetrazol-5-yl)-4-(trifluoromethyl)benzamide • V-2: 2-(methylsulfanyl)-3-(methylsulfonyl)-N-(1-methyl-1H-tetrazol-5-yl)-4-(trifluoromethyl)benzamide • V-3: 2,3-bis(ethylsulfanyl)-N-(1-methyl-1H-tetrazol-5-yl)-4-(trifluoromethyl)benzamide • V-4: 2-chloro-3-(ethylsulfanyl)-N-(1-methyl-1H-tetrazol-5-yl)-4-(trifluoromethyl)benzamide • V-5: 2-chloro-4-iodo-3-(methylsulfanyl)-N-(1-methyl-1H-tetrazol-5-yl)benzamide • V-6: 2-chloro-4-iodo-3-(methylsulfinyl)-N-(1-methyl-1H-tetrazol-5-yl)benzamide • V-7: 2-chloro-4-iodo-3-(methylsulfonyl)-N-(1-methyl-1H-tetrazol-5-yl)benzamide • V-8: 2-bromo-3-(methylsulfanyl)-N-(1-methyl-1H-tetrazol-5-yl)-4-(trifluoromethyl)benzamide • V-9: 2-bromo-3-(methylsulfinyl)-N-(1-methyl-1H-tetrazol-5-yl)-4-(trifluoromethyl)benzamide • V-10: 2-bromo-3-(methylsulfonyl)-N-(1-methyl-1H-tetrazol-5-yl)-4-(trifluoromethyl)benzamide • V-11: 2-bromo-3-(ethylsulfanyl)-N-(1-methyl-1H-tetrazol-5-yl)-4-(trifluoromethyl)benzamide • V-12: 2-bromo-3-(ethylsulfinyl)-N-(1-methyl-1H-tetrazol-5-yl)-4-(trifluoromethyl)benzamide • V-13: 2-bromo-3-(ethylsulfonyl)-N-(1-methyl-1-1H-tetrazol-5-yl)-4-(trifluoromethyl)benzamide • V-14: 2-cyclopropyl-3-(ethylsulfanyl)-N-(1-methyl-1H-tetrazol-5-yl)-4-(trifluoromethyl)benzamide Herbicidal Pre-Emergence Action: […]

Hordeum murinum = assay: Post-emergence herbicidal action, HORMU; parameters: key: % herbicidal action: 100 = plants died, 0 = like control
Description: as §1

Digitaria sanguinalis [1] = assay: Post-emergence herbicidal action, DIGSA; parameters: key: % herbicidal action: 100 = plants died, 0 = like control
Description: as §1

Digitaria sanguinalis [2] = assay: Pre-emergence herbicidal action, DIGSA; settings: dosage 320 g/ha, scored visually after 3 weeks vs untreated controls (100% = plants have died)
Text: 1. Pre-Emergence Herbicidal Action Against Harmful Plants Seeds of monocotyledonous and dicotyledonous weed plants and crop plants are laid out in sandy loam soil in wood-fiber pots and covered with soil. The compounds of the invention, formulated in the form of wettable powders (WP) or as emulsion concentrates (EC), are then applied to the surface of the covering soil in the form of an aqueous suspension or emulsion at a water application rate equating to 600 to 800 l/ha, with addition of 0.2% wetting agent. After the treatment, the pots are placed in a greenhouse and kept under good growth conditions for the trial plants. The damage to the test plants is scored visually after a test period of 3 weeks by comparison with untreated controls (herbicidal activity in percent (%): 100% activity=the plants have died, 0% activity=like control plants). […] The tables below illustrate, in an exemplary manner, the […] herbicidal action of the compounds according to the invention, the herbicidal activity being stated in percent. [table] In the experiments that follow, herbicidal action of numerous inventive compounds and the known compounds that are structurally closest from D1 (WO 2012/028579 A1) and D2 (WO 2018/202535 A1) were compared under the above-specified conditions by the pre-emergence and post-emergence method. The example numbers given in the tables relate to the compounds disclosed in the respective documents. In addition to the compounds disclosed in D1 and D2, the following compounds V-1 to V-14 that are encompassed by D1 or D2 but are not compounds specified therein were used in the comparative experiments: • V-1: 2-(methylsulfanyl)-3-(methylsulfinyl)-N-(1-methyl-1H-tetrazol-5-yl)-4-(trifluoromethyl)benzamide • V-2: 2-(methylsulfanyl)-3-(methylsulfonyl)-N-(1-methyl-1H-tetrazol-5-yl)-4-(trifluoromethyl)benzamide • V-3: 2,3-bis(ethylsulfanyl)-N-(1-methyl-1H-tetrazol-5-yl)-4-(trifluoromethyl)benzamide • V-4: 2-chloro-3-(ethylsulfanyl)-N-(1-methyl-1H-tetrazol-5-yl)-4-(trifluoromethyl)benzamide • V-5: 2-chloro-4-iodo-3-(methylsulfanyl)-N-(1-methyl-1H-tetrazol-5-yl)benzamide • V-6: 2-chloro-4-iodo-3-(methylsulfinyl)-N-(1-methyl-1H-tetrazol-5-yl)benzamide • V-7: 2-chloro-4-iodo-3-(methylsulfonyl)-N-(1-methyl-1H-tetrazol-5-yl)benzamide • V-8: 2-bromo-3-(methylsulfanyl)-N-(1-methyl-1H-tetrazol-5-yl)-4-(trifluoromethyl)benzamide • V-9: 2-bromo-3-(methylsulfinyl)-N-(1-methyl-1H-tetrazol-5-yl)-4-(trifluoromethyl)benzamide • V-10: 2-bromo-3-(methylsulfonyl)-N-(1-methyl-1H-tetrazol-5-yl)-4-(trifluoromethyl)benzamide • V-11: 2-bromo-3-(ethylsulfanyl)-N-(1-methyl-1H-tetrazol-5-yl)-4-(trifluoromethyl)benzamide • V-12: 2-bromo-3-(ethylsulfinyl)-N-(1-methyl-1H-tetrazol-5-yl)-4-(trifluoromethyl)benzamide • V-13: 2-bromo-3-(ethylsulfonyl)-N-(1-methyl-1-1H-tetrazol-5-yl)-4-(trifluoromethyl)benzamide • V-14: 2-cyclopropyl-3-(ethylsulfanyl)-N-(1-methyl-1H-tetrazol-5-yl)-4-(trifluoromethyl)benzamide Herbicidal Pre-Emergence Action: […]

Lolium multiflorum = assay: Post-emergence herbicidal action, LOLMU; parameters: key: % herbicidal action: 100 = plants died, 0 = like control
Description: as §1

Cyperus esculentus = assay: Pre-emergence herbicidal action, CYPES; parameters: key: % activity: 100 = plants have died, 0 = like control plants; settings: comparative experiment
Summary of the method: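 Herbicidal activity is expressed in percent, scored by eye after a 3-week greenhouse period, with 0% matching untreated plants and 100% meaning death. Compounds, as wettable powders or emulsion concentrates, are applied pre-emergence to the covering soil.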

Cn1nnnc1NC(=O)c1ccc(C(F)(F)F)c(C[S+]([O-])C2CC2)c1Cl (racemic) [Example 1-303]
herbicidal action LOLRI (Lolium rigidum): 90% | herbicidal action HORMU (Hordeum murinum; post-emergence, dosage 80 g/ha): 100%

COCC[S+]([O-])Cc1c(C(F)(F)F)ccc(C(=O)Nc2nnnn2C)c1Cl (racemic) [Example 1-306]
herbicidal action DIGSA (Digitaria sanguinalis [1]; Dosage 80 g/ha): 100 | herbicidal activity DIGSA (Digitaria sanguinalis [2]): 100%

Cn1nnnc1NC(=O)c1ccc(C(F)(F)F)c(C[S+]([O-])CC(F)(F)F)c1Cl (racemic) [Example 1-312]
herbicidal action DIGSA (Digitaria sanguinalis [1]; post-emergence, dosage 80 g/ha): 100% | herbicidal action HORMU (Hordeum murinum; post-emergence, dosage 80 g/ha): 80% | herbicidal activity DIGSA (Digitaria sanguinalis [2]): 100%

CSCc1c(C(F)(F)F)ccc(C(=O)Nc2nnnn2C)c1C [Example 1-83]
herbicidal action LOLMU (Lolium multiflorum; post-emergence, dosage 80 g/ha): 80%

CSc1c(C(=O)Nc2nnnn2C)ccc(C(F)F)c1C[S+](C)[O-] (centres unmarked) [Example 1-171]
herbicidal action DIGSA (Digitaria sanguinalis [1]; Dosage 80 g/ha): 100 | herbicidal activity DIGSA (Digitaria sanguinalis [2]): 100%

Cn1nnnc1NC(=O)c1ccc(C(F)(F)F)c(CSC2CC2)c1Cl [Example 1-302]
herbicidal action LOLRI (Lolium rigidum): 90% | herbicidal action HORMU (Hordeum murinum; post-emergence, dosage 80 g/ha): 90%

Cn1nnnc1NC(=O)c1ccc(C(F)(F)F)c(CSCC(F)(F)F)c1Cl [Example 1-311]
herbicidal action HORMU (Hordeum murinum; Dosage 80 g/ha): 100

Cn1nnnc1NC(=O)c1ccc(C(F)(F)F)c(CS(=O)(=O)CC2CC2)c1Cl [Example 1-316]
herbicidal action DIGSA (Digitaria sanguinalis [1]; Dosage 80 g/ha): 100 | herbicidal activity DIGSA (Digitaria sanguinalis [2]): 100%

CSCc1c(C(F)F)ccc(C(=O)Nc2nnnn2C)c1Cl [Example 1-320]
herbicidal action LOLMU (Lolium multiflorum; Dosage 80 g/ha): 80 | Herbicidal action against CYPES (Cyperus esculentus; 20 g of a.i./ha): 80

Cn1nnnc1NC(=O)c1ccc(C(F)F)c(CS(C)(=O)=O)c1Cl [Example 1-322]
herbicidal action LOLMU (Lolium multiflorum; post-emergence, dosage 80 g/ha): 90%

CCSCc1c(C(F)F)ccc(C(=O)Nc2nnnn2C)c1Cl [Example 1-323]
herbicidal action LOLMU (Lolium multiflorum; post-emergence, dosage 80 g/ha): 90%

CCS(=O)(=O)Cc1c(C(F)F)ccc(C(=O)Nc2nnnn2C)c1Cl [Example 1-325]
herbicidal action LOLMU (Lolium multiflorum; Dosage 80 g/ha): 90

Cn1nnnc1NC(=O)c1ccc(I)c(CS(C)(=O)=O)c1Cl [Example 1-364]
herbicidal action DIGSA (Digitaria sanguinalis [1]; Dosage 80 g/ha): 100 | herbicidal activity DIGSA (Digitaria sanguinalis [2]): 100%

CCSCc1c(C(F)(F)F)ccc(C(=O)Nc2nnnn2C)c1Br [Example 1-383]
herbicidal action LOLMU (Lolium multiflorum; post-emergence, dosage 80 g/ha): 90% | Herbicidal action against CYPES (Cyperus esculentus; 80 g of a.i./ha): 100

Cn1nnnc1NC(=O)c1ccc(C(F)(F)F)c(CS(C)(=O)=O)c1C(F)(F)C(F)(F)F [Example 1-552]
herbicidal action DIGSA (Digitaria sanguinalis [1]; Dosage 80 g/ha): 90 | herbicidal activity DIGSA (Digitaria sanguinalis [2]): 100%

CSCc1c(Cl)ccc(C(=O)Nc2nnnn2C)c1Cl [Example 1-559]
herbicidal action LOLMU (Lolium multiflorum; post-emergence, dosage 80 g/ha): 100%

CCSCc1c(C(F)(F)F)ccc(C(=O)Nc2nnnn2CC)c1C [Example 2-86]
herbicidal action LOLMU (Lolium multiflorum; post-emergence, dosage 80 g/ha): 90%

CCn1nnnc1NC(=O)c1ccc(C(F)F)c(CSC)c1SC [Example 2-170]
herbicidal action DIGSA (Digitaria sanguinalis [1]; Dosage 80 g/ha): 100 | herbicidal activity DIGSA (Digitaria sanguinalis [2]): 100%

CCn1nnnc1NC(=O)c1ccc(C(F)F)c(C[S+](C)[O-])c1SC (centres unmarked) [Example 2-171]
herbicidal action DIGSA (Digitaria sanguinalis [1]; Dosage 80 g/ha): 90 | herbicidal activity DIGSA (Digitaria sanguinalis [2]): 100%

CCn1nnnc1NC(=O)c1ccc(C(F)(F)F)c(CSC)c1Cl [Example 2-296]
herbicidal action LOLMU (Lolium multiflorum; post-emergence, dosage 80 g/ha): 90%

CCn1nnnc1NC(=O)c1ccc(C(F)(F)F)c(C[S+](C)[O-])c1Cl (centres unmarked) [Example 2-297]
herbicidal action LOLMU (Lolium multiflorum; post-emergence, dosage 80 g/ha): 90%

CCSCc1c(C(F)(F)F)ccc(C(=O)Nc2nnnn2CC)c1Cl [Example 2-299]
herbicidal action LOLMU (Lolium multiflorum; post-emergence, dosage 80 g/ha): 90%

CCn1nnnc1NC(=O)c1ccc(C(F)(F)F)c(CSCC(F)(F)F)c1Cl [Example 2-311]
herbicidal action HORMU (Hordeum murinum; Dosage 80 g/ha): 80

CCn1nnnc1NC(=O)c1ccc(C(F)(F)F)c(C[S+]([O-])CC2CC2)c1Cl (centres unmarked) [Example 2-315]
herbicidal action DIGSA (Digitaria sanguinalis [1]; Dosage 80 g/ha): 100 | herbicidal activity DIGSA (Digitaria sanguinalis [2]): 100%

CCn1nnnc1NC(=O)c1ccc(C(F)F)c(CSC)c1Cl [Example 2-320]
herbicidal action LOLMU (Lolium multiflorum; Dosage 80 g/ha): 80

CCn1nnnc1NC(=O)c1ccc(C(F)F)c(CS(C)(=O)=O)c1Cl [Example 2-322]
herbicidal action LOLMU (Lolium multiflorum; post-emergence, dosage 80 g/ha): 80%

CCSCc1c(C(F)F)ccc(C(=O)Nc2nnnn2CC)c1Cl [Example 2-323]
herbicidal action LOLMU (Lolium multiflorum; post-emergence, dosage 80 g/ha): 80%

CCn1nnnc1NC(=O)c1ccc(C(F)F)c(C[S+]([O-])CC)c1Cl (centres unmarked) [Example 2-324]
herbicidal action DIGSA (Digitaria sanguinalis [1]; post-emergence, dosage 80 g/ha): 100% | herbicidal action HORMU (Hordeum murinum; post-emergence, dosage 80 g/ha): 90% | herbicidal activity DIGSA (Digitaria sanguinalis [2]): 100%

CCn1nnnc1NC(=O)c1ccc(I)c(C[S+](C)[O-])c1Cl (centres unmarked) [Example 2-363]
herbicidal action HORMU (Hordeum murinum; Dosage 80 g/ha): 90

CCn1nnnc1NC(=O)c1ccc(C(F)(F)F)c(C[S+]([O-])CC)c1Br (centres unmarked) [Example 2-384]
herbicidal action LOLMU (Lolium multiflorum; post-emergence, dosage 80 g/ha): 80%

CCCn1nnnc1NC(=O)c1ccc(C(F)(F)F)c(CS(C)(=O)=O)c1SC [Example 3-163]
herbicidal action HORMU (Hordeum murinum; Dosage 80 g/ha): 80

CCCn1nnnc1NC(=O)c1ccc(C(F)F)c(CSC)c1SC [Example 3-170]
herbicidal action DIGSA (Digitaria sanguinalis [1]; Dosage 80 g/ha): 100 | herbicidal activity DIGSA (Digitaria sanguinalis [2]): 100%

CCCn1nnnc1NC(=O)c1ccc(C(F)F)c(C[S+](C)[O-])c1SC (centres unmarked) [Example 3-171]
herbicidal action DIGSA (Digitaria sanguinalis [1]; Dosage 80 g/ha): 90 | herbicidal activity DIGSA (Digitaria sanguinalis [2]): 100%

CCCn1nnnc1NC(=O)c1ccc(C(F)F)c(CS(C)(=O)=O)c1SC [Example 3-172]
herbicidal action DIGSA (Digitaria sanguinalis [1]; Dosage 80 g/ha): 90 | herbicidal activity DIGSA (Digitaria sanguinalis [2]): 100%

CCCn1nnnc1NC(=O)c1ccc(C(F)(F)F)c(CSCC(F)(F)F)c1Cl [Example 3-311]
herbicidal action HORMU (Hordeum murinum; Dosage 80 g/ha): 90

CCCn1nnnc1NC(=O)c1ccc(C(F)(F)F)c(CSCC2CC2)c1Cl [Example 3-314]
herbicidal action HORMU (Hordeum murinum; post-emergence, dosage 80 g/ha): 90%

CCCn1nnnc1NC(=O)c1ccc(C(F)F)c(CS(=O)(=O)CC)c1Cl [Example 3-325]
herbicidal action HORMU (Hordeum murinum; Dosage 80 g/ha): 90
